These results are taken from patent US9155695B2, “Injectable ropinirole compositions and methods for making and using same” (Medtronic, Inc., priority 2013, dated 2015).

The test system of data set [1] is site of infusion. The following applies: in vivo.
Data set [2] in a line: Pharmacokinetics of injectable ropinirole administered subcutaneously, steady state plasma levels. The following applies: rats, subcutaneous, sterilized ropinirole HCl in sterile water for injection, no excipients. The data set is classed as in vivo.
Description: The rats were given sterilized ropinirole HCl in sterile water for injection, no excipients.
Data set [3] deals with site of infusion. The experiment in a line: Toxicology, subcutaneous infusion site reaction. The data set is classed as in vivo, rabbits and minipigs. The procedure: Toxicology was tested on rats, rabbits and minipigs. A sterilized injectable ropinirole composition at 15 mg/mL/day was administered to the rabbits and minipigs. Injection sites were administered 1 mL of infusate per day for 3 days and tissues collected immediately after cessation of delivery. […] A slight trend towards larger reactions with higher concentrations/doses of ropinirole relative to vehicle-treated sites was found but was concluded to be much less severe than apomorphine-induced inflammation at clinically relevant doses (FIGS. 12 and 13).

A short description of data set [4]: Pharmacokinetics of injectable ropinirole administered subcutaneously, steady state plasma levels. The data set is classed as in vivo. The following applies: minipigs, subcutaneous, ropinirole 15 mg/ml terminally sterilized (Table A).
Data set [5] deals with site of infusion. The experiment in a line: Histopathology score of site reactions in the subcutis at the cannula tip. The following applies: apomorphine, microscopic.

Structures are written as SMILES. Structures can show the parent of a compound that is named as a salt.

As to `CCCN(CCC)CCc1cccc2c1CC(=O)N2` [ropinirole, 4-[2-(dipropylamino)ethyl]-1,3-dihydro-2H-indol2-one monohydrochloride], the “two and three repeat administrations to the same site versus single 3-day administration” value in data set [1] is “did not differ significantly”. For the same compound, the “steady state plasma levels versus dose” value in data set [2] and in data set [4] was “approximate linear relationship to the dose administered” throughout. Also, the “inflammation/necrosis at the site of infusion” value in data set [3] (15 mg/mL/day, 1 mL per day for 3 days) is given as “mild inflammation/necrosis”. Besides, the “gross detectability of reactions at the local sites of infusion” value in data set [3] (seen only at cannula tip in the subcutis upon microscopic evaluation) was “not detectable grossly at the surface of the skin”.
As to `CN1CCc2cccc3c2[C@H]1Cc1ccc(O)c(O)c1-3` [apomorphine], the “size of site reaction relative to 15 mg/mL/day ropinirole” value in data set [3] (minipig, 10 mg/3 mL/day, 3 days infusion) is listed as “approximately twice as large”. Also, in data set [5], the inflammation score entry is recorded as “severe” and the necrosis score result is reported as “moderate”.
